Each structure is given as a SMILES string. Structures can show the parent of a compound that is named as a salt.

Assay [1] has as its system blood pressure of anesthetized rats. In words: Effect on blood pressure of anesthetized rats. The format is in vivo, Male SD rats. The conditions noted are these: Rattus norvegicus, intravenous, diastolic, urethane anesthesia, read-out: Reduction of blood pressure (%). The protocol: Male SD rats (body weight: 250~350 g, product of Nihon Crea Co.) were placed under urethane anesthesia and then a sphygmomanometric pressure transducer was inserted into the left cervical artery and recording was made on a polygraph (RM6100, product of Nihon Koden Co.) using a strain pressure […], product of Nihon Koden Co.). The test compounds were dissolved in physiological saline and administered intravenously. The change in blood pressure was indicated as the reduction rate from the initial value of diastolic blood pressure just prior to administration of the test compound.

Assay [2] relates to platelet aggregation induced by arachidonic acid. In words: Inhibiting effect on platelet aggregation (in vitro), arachidonic acid as aggregating agent. The conditions noted are these: Oryctolagus cuniculus; arachidonic acid 68.6 μg/ml, 37° C., platelet suspension. The format is cell-based, Japanese white male house rabbits. The protocol:
Platelet rich plasma was prepared from Japanese white male house rabbits (body weight: 2.5~3.0 kg) following the method of Suzuki et al. (Suzuki, K. et al., The Clinical Report, Vol. 21, No. 13, p. 5263, 1987). The resulting platelet rich plasma solution was appropriately diluted with a Tris-Tyrode buffer solution (pH 7.4) to prepare a 4×10^5 platelet/μl platelet suspension to be used for the test. The platelet aggregation was measured using a platelet aggregometer (NBS Hematoracer 601, product of Nikoh Bioscience Co.). Specifically, 250 μl of the platelet suspension, 5 μl of a 96 mM calcium chloride solution and 5 μl of the test compound solution dissolved in methanol were added to a cuvette, and after incubating for one minute at 37° C., 20 μl of an aggregating agent was added and the maximum degree of aggregation occurring was determined. The aggregating agents used were platelet activating factor (PAF) (2.5 ng/ml) and arachidonic acid (68.6 μg/ml). The 50% inhibition concentration (IC50) was calculated from the results of measurement with various concentrations of each test compound.

In assay [3] the test system is rat peripheral arterial occlusion models. The experiment in a line: Effect on rat peripheral arterial occlusion models (5% lactic acid induced). The format is in vivo, SD rats. The note with it: i.v., solvent physiological saline (printed once, above), lower leg lesions at 14 days. The protocol: Models were prepared following the method of Iwamoto et al. (Iwamoto, M. et al., Japanese Pharmacology & Therapeutics, Vol. 14, Suppl. 5, p. 41, 1986). Upon minimal dissection of the femoral regions of SD rats (6 per group) with a body weight of 250~350 g under Nembutal anesthesia, 0.1 ml of 5% lactic acid was administered intraarterially. The rats were raised for 14 days under normal conditions, and observed for lesions of the lower legs. The grading for the lesions was: "1" for nigrities only at the nail tips, "2" for nigrities up to the digits, "3" for necrosis of the digits, and "4" deciduation of the digits. Each of the digits of the lower legs on the side where lactic acid had been administered were graded, and the overall grade was determined as the index of lesions. The disorder inhibition rate was determined by dividing the index of lesions in the drug-administered group by the index of lesions of the control group. The drugs were dissolved in physiological saline or dimethylsulfoxide, and injected through the caudal vein 5 minutes prior to injection of the 5% lactic acid.

The test system of assay [4] is calcium contraction of the thoracic aorta. In words: Effect on calcium contraction (in vitro), thoracic aorta specimens. The note with it: Rattus norvegicus; 1×10^-7 M in dimethylsulfoxide; 0.3 mM calcium chloride, 80 mM KCl buffer. The arrangement: species or system Male SD rats. The protocol:
This was investigated according to the method of Ishibashi, et al. (Ishibashi, A. et al., Folia Pharmacologica Japonica, Vol. 82, p. 361, 1983). Male SD rats of body weight approximately 300 g were used to prepare thoracic aorta extract specimens, which were suspended and immobilized in a organ bath containing 10 ml of Krebs-Henseleit buffer solution at 37° C. through which a mixed gas of oxygen (95%) and carbon dioxide (5%) had been passed. After equilibrating the specimens, they were equilibrated in a buffer solution without calcium chloride and then in an isotonic calcium-free 80 mM potassium chloride buffer solution replaced with potassium ions, and a resting tension of 0.2 g was applied. Contraction was induced by addition of 0.3 mM calcium chloride. The test compounds were added 10 minutes prior to addition of the calcium solution. The percent inhibition of the test compounds were calculated using the first contraction as the control (100% contraction). The test compounds were used for the test as solutions in dimethylsulfoxide at a 1×10^-7 M concentration.

Assay [5] concerns histamine-induced guinea pig bronchoconstriction. The experiment in a line: Effect on histamine-induced guinea pig bronchoconstriction models. The format is in vivo, male Hartley guinea pigs. The conditions noted are these: inhalation for 30 seconds, hydrochloride, histamine 3 μg/kg i.v. after 2 minutes. The protocol:
After urethane anesthetization of male Hartley guinea pigs (body weight: 350~450 g, 5 per group, Nihon Crea Co.), a small cannula was inserted into trachea. Next, gallamine triethiodide (1 mg/kg) was intravenously administered, and the tracheal cannula was connected to a constant volume respirator. The artificial respiration was conducted with an air volume per breath of 7~10 ml, a breath frequency of 60/min and a lung application pressure of 10 cm water. The volume of air overflowing from the legs on the cannula side was recorded on a polygraph (RM6100: product of Nihon Koden Co.) with a model 7020 bronchospasm transducer (product of Ugo Basile). Hydrochloride of the test compounds were dissolved in physiological saline, and inhalation was performed with reference to the method of Minami et al. […] The inhalation load apparatus was prepared by directly incorporating an ultrasonic nebulizer into an artificial respiration circuit (Omron ultrasonic aspirator NE-U11B, product of […] Electric Co.). The test compound (mg/0.5 ml) was administered by inhalation for 30 seconds, and after 2 minutes histamine (3 μg/kg) was intravenously administered and the air overflow volume was measured. The bronchoconstriction rate was calculated as a percentage with 100 being the height of contraction when the airway was completely constricted. The inhibition rate was calculated by dividing the contraction rate of the test compound group by the contraction rate of the control group.

Assay [6] deals with antigen-induced guinea pig bronchoconstriction. In words: Effect on antigen-induced guinea pig bronchoconstriction. The conditions noted are these: inhaled one minute before i.v. DNP-bovine serum albumin; observed 15 minutes; passively sensitized. The format is in vivo, Male Hartley guinea pigs. The protocol: Male Hartley guinea pigs (body weight: 300~450 g, Nihon Crea Co.) were intraperitonealy administered anti-DNP-Ascarls serum (1024-fold antibody titer) at 0.5 ml/kg. After 24 hours, under urethane anesthesia there were inserted a cannula into the trachea, a sphygmomanometric cannula into the left cervical artery and a drug injection cannula into the right jugular vein, and gallamine triethiodide (1.0 mg/0.5 ml/kg) was intravenously administered and connected to an artificial respirator (product of Ugo Basile). For the test, diphenhydramine (60 mg/ml/kg) was intraperitoneally administered, the compound of Example 16 was inhaled as the test compound after 14 minutes, and following intravenous administration of DNP-bovine serum albumin (1.0 mg protein/0.5 ml/kg) one minute after administration of the test compound, the degree of bronchoconstriction was observed over a period of 15 minutes. The bronchoconstriction rate was given as a percentage of the maximum air over flow volume obtained by clamping off the trachea. The test compounds were inhaled by nebulizing for 30 seconds with an ultrasonic nebulizer.

In general, IC50 refers to the concentration at which inhibition is half-maximal. Low readings indicate higher potency, high ones lower potency. A word on the inhibition: it is the drop in the measured response relative to a control, in per cent. In the case of `CC1=CC(N2CCCCC2)C(O)C(C)(C)CC1=O` (stereo not shown) [Example 16, 5-hydroxy-4-piperidino-2,6,6-trinethyl-2-cyclohepten-1-one hydrochloride], the inhibition in vivo at 1 mg/kg in assay [1] (1 mg/kg) is 6%. For the same compound, in assay [1] (3 mg/kg), the inhibition in vivo at 3 mg/kg amounted to 16%. In assay [1] (10 mg/kg), the inhibition in vivo at 10 mg/kg was 40%. The compound also had an IC50 in assay [2] of 100 µM. The Inhibition rate worked out at 65% in assay [3] (3 mg/kg) and 78% in assay [3] (30 mg/kg). Moreover, the inhibition at 0.1 µM in assay [4] is 24%. Further, the Brochoconstriction inhibition rate in assay [5] (3.0 mg/0.5 ml) came out at 32%; in assay [5] (10.0 mg/0.5 ml), 46%. Further, in assay [6], the “airway contraction / bronchoconstriction (FIG. 1)” value was “inhibited airway contract ion”.

The record behind these values is patent publication US5849801A, “4-amino-5-oxy-2,6,6-trimethyl-2-cycloheptene compounds” (Tokyo Tanabe Company Limited, priority 1995, dated 1998).
